Measured values as given in ChEMBL document CHEMBL5500384, “New synergistic benzoquinone scaffolds as inhibitors of mycobacterial cytochrome bc1 complex to treat multi-drug resistant tuberculosis” (Eur J Med Chem, 2024).

Assays:
[1] = Hepatotoxicity in Albino mouse assessed as change in hepatocytes at 50 to 2000 mg/kg, po measured after 14 days; format: toxicity, organism-based; conditions: in vivo, 336 h, dose 50-2000 mg/kg, time 14 day
[2] = tested on: Mycobacterium tuberculosis; assay: Antitubercular activity against Mycobacterium tuberculosis H37Rv assessed as effect on nucleoid morphology at 12.5 ug/ml by fluorescence microscopy analysis; format: functional; conditions: dose 12.5 µg/ml
[3] = Cytotoxicity against african green monkey Vero cells by MTT assay; format: toxicity, cell-based; conditions: chlorocebus sabaeus
[4] = Acute toxicity in Albino mouse assessed as mortality at 50 mg/kg, po after 14 days; format: organism-based; conditions: in vivo, 336 h, time 14 day
[5] = Acute toxicity in Albino mouse assessed as mortality at 300 mg/kg, po after 5 to 8 hrs; format: organism-based; conditions: in vivo, time 5-8 hrs
[6] = tested on: Mycobacterium tuberculosis; assay: Antitubercular activity against Mycobacterium tuberculosis H37Rv assessed as effect on nucleoid morphology at 6.25 ug/ml by fluorescence microscopy analysis; format: functional; conditions: dose 6.25 µg/ml
[7] = Acute toxicity in Albino mouse assessed as mortality at 300 mg/kg, po after 14 days; format: organism-based; conditions: in vivo, 336 h, time 14 day

| SMILES | Activity [1] | Activity [2] | Activity [3] | Activity [4] | Activity [5] | Activity [6] | Activity [7] |
| --- | --- | --- | --- | --- | --- | --- | --- |
| COc1ccc(C2C(Cl)C(=O)N2C2=C(Cl)C(=O)c3ccccc3C2=O)cc1 (centres undefined) | Non-Toxic | 99% | Dose-Dependent Effect | Non-Toxic | Toxic | – | – |
| O=C1C(Cl)=C(Cl)C(=O)c2ccccc21 [Dichlon] | Non-Toxic | – | – | – | – | – | – |
| CN(C)c1ccc(C2C(Cl)C(=O)N2C2=C(Cl)C(=O)c3ccccc3C2=O)cc1 (centres undefined) | – | – | Dose-Dependent Effect | – | – | 99% | Non-Toxic |
